Measurements taken from PMC11749085, “Paeoniflorin relieves arterial stiffness induced by a high-fat/high-sugar diet by disrupting the YAP-PPM1B interaction” (Life Medicine, 2023).

How the values were obtained:
YAP-CC domain = target: T1, YAP-CC domain (Homo sapiens, UniProt P46937); test: biolayer interferometry; type: binding; conditions: read-out: affinity
T1 construct: gene YAP1
From the text: biolayer interferometry on YAP-CC domain | a binding between paeoniflorin and the YAP-CC domain with an affinity of […]

[1] = target: T2, LgBiT-YAP-CC / SmBiT-PPM1B (Homo sapiens, UniProt P46937); test: NanoBiT split-luciferase protein-protein interaction assay in HeLa cells; type: cell-based
T2 construct: gene YAP1; with Protein phosphatase 1B
T2 sequence (P46937 298-328): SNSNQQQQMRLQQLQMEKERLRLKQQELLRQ
T2 sequence (O75688 2-479 partner): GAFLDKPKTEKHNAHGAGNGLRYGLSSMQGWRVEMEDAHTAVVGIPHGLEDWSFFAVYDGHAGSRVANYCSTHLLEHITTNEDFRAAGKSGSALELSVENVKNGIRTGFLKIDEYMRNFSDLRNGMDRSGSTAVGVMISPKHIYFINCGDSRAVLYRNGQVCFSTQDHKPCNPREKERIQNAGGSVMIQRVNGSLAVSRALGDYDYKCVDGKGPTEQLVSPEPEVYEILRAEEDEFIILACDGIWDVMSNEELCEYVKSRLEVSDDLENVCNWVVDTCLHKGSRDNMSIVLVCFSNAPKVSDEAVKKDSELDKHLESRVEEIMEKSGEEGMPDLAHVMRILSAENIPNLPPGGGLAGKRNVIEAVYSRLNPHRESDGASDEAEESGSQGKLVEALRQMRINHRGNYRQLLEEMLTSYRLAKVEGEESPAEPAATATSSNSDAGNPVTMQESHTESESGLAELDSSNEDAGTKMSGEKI

T1 sequence (P46937 298-328): as the sequence (P46937 298-328) above

Kd (YAP-CC domain): 40.5 µM
IC50 [1]: 4.8 µM
Structure (SMILES): C[C@@]12C[C@@]3(O)O[C@@H](O1)[C@]1(COC(=O)c4ccccc4)[C@H]3C[C@@]12O[C@@H]1O[C@H](CO)[C@@H](O)[C@H](O)[C@H]1O [paeoniflorin]
